Data from patent US20070117743A1, “New antitumoral compounds” (priority 2003, published 2007).
Where two headings read alike, the source gives them in different places.

Assays:
Format in all cases: cell-based, human
[1] = tested on: A-549; assay: SRB colorimetric assay of cell growth and viability, A-549; details: 48 hours exposure; for GI50: read-out: GI50 A-549; for CC50: read-out: LC50 A-549
[2] = tested on: SK-MEL-28; assay: SRB colorimetric assay of cell growth and viability, SK-MEL-28; details: 48 hours exposure; for CC50: read-out: LC50 MEL-28
[3] = tested on: HT-29; assay: SRB colorimetric assay of cell growth and viability, HT-29; details: 48 hours exposure; for GI50: read-out: GI50 HT-29; for CC50: read-out: LC50 HT-29
[4] = tested on: LoVo; assay: SRB colorimetric assay of cell growth and viability, LoVo; details: 48 hours exposure; for CC50: read-out: LC50 LOVO
[5] = tested on: LoVo-Dox; assay: SRB colorimetric assay of cell growth and viability, LoVo-Dox; details: 48 hours exposure; for CC50: read-out: LC50 LOVO-DOX
In short: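 Human tumor cells seeded at 5×10^3/well in RPMI 1640 10% FBS, attached 18 hours, then exposed 48 hours to compound (10 to 10^−8 μg/mL). TCA-fixed, SRB-stained, OD 490 nm; triplicates give GI, TGI and LC values.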

[6] = tested on: DU-145; assay: SRB colorimetric assay of cell growth and viability, DU-145; details: 48 hours exposure
[7] = tested on: LNCaP; assay: SRB colorimetric assay of cell growth and viability, LNCaP; details: 48 hours exposure; for GI50: read-out: GI50 LN-caP; for CC50: read-out: LC50 LN-caP
Source text: The finality of this assay is to interrupt the growth of a “in vitro” tumor cell culture by means a continued exhibition of the cells to the sample to be testing.
This form of the assay employs 96 well cell culture microplates of 9 mm diameter (Faircloth, 1988; Mosmann, 1983). Most of the cell lines are obtained from American Type Culture Collection (ATCC) derived from different human cancer types.
Cells are maintained in RPMI 1640 10% FBS, supplemented with 0.1 g/l penicillin and 0.1 g/l streptomycin sulfate and then incubated at 37° C., 5% CO2 and 98% humidity. For the experiments, cells were harvested from subconfluent cultures using trypsin and resuspended in fresh medium before plating.
Cells are seeded in 96 well microtiter plates, at 5×10^3 cells per well in aliquots of 195 μL medium, and they are allowed to attach to the plate surface by growing in drug free medium for 18 hours. Afterward, samples are added in aliquots of 5 μL in a ranging from 10 to 10^−8 μg/mL, dissolved in DMSO:EtOH:PBS (0.5:0.5:99). After 48 hours exposure, the antitumor effect are measured by the SRB methodology: cells are fixed by adding 50 μL of cold 50% (wt/vol) trichloroacetic acid (TCA) and incubating for 60 minutes at 4° C. Plates are washed with deionized water and dried. One hundred μL of SRB solution (0.4% wt/vol in 1% acetic acid) is added to each microtiter well and incubated for 10 minutes at room temperature. Unbound SRB is removed by washing with 1% acetic acid. Plates are air dried and bound stain is solubilized with Tris buffer. Optical densities are read on a automated spectrophotometric plate reader at a single wavelength of 490 nm.
The values for mean+/− SD of data from triplicate wells are calculated. Some parameters for cellular responses can be calculated: GI=growth inhibition, TGI=total growth inhibition (cytostatic effect) and LC=cell killing (cytotoxic effect).

[8] = tested on: IGROV-1; assay: SRB colorimetric assay of cell growth and viability, IGROV-1; details: 48 hours exposure
[9] = tested on: IGROV-ET; assay: SRB colorimetric assay of cell growth and viability, IGROV-ET; details: 48 hours exposure; for CC50: read-out: LC50 IGROV-ET
[10] = tested on: HeLa; assay: SRB colorimetric assay of cell growth and viability, HeLa; details: 48 hours exposure; for CC50: read-out: LC50 HELA
[11] = tested on: HeLa-APL; assay: SRB colorimetric assay of cell growth and viability, HeLa-APL; details: 48 hours exposure; for CC50: read-out: LC50 HELA-APL
[12] = tested on: K-562; assay: SRB colorimetric assay of cell growth and viability, K-562; details: 48 hours exposure; for CC50: read-out: LC50 K-562
[13] = tested on: PANC-1; assay: SRB colorimetric assay of cell growth and viability, PANC-1; details: 48 hours exposure; for CC50: read-out: LC50 PANC-1

## C/C=C1\NC(=O)[C@H](Cc2ccccc2)NC(=O)[C@@H](C(C)C)NC(=O)[C@@H]([C@@H](C)CC)NC(=O)[C@H](NC(=O)[C@H](NC(=O)[C@H](CCCN)NC(=O)[C@H]2CCCN2C(=O)[C@H](NC(=O)[C@@H](NC(=O)[C@@H](NC(=O)[C@H](NC(=O)CCCC(C)C)[C@H](C)O)[C@@H](C)O)C(C)C)C(C)C)[C@@H](C)CC)[C@@H](C)OC(=O)[C@H](C(C)C)NC1=O [Compound 41, [D-Thr^13]-KF]
[1]
  TGI A-549: 2.72E−06 Molar
  GI50: 1.63 µM
  CC50: 4.53 µM
[2]
  GI50: 1.23 µM
  TGI MEL-28: 2.20E−06 Molar
  CC50: 3.96 µM
[3]
  TGI HT-29: 1.57E−06 Molar
  GI50: 0.73 µM
  CC50: 3.41 µM
[4]
  GI50: 0.155 µM
  TGI LOVO: 7.23E−07 Molar
  CC50: 2.9 µM
[5]
  GI50: 0.126 µM
  TGI LOVO-DOX: 2.53E−07 Molar
  CC50: 0.509 µM
[6]
  GI50: 1 µM
  LC50 (concentration causing 50% net cell kill): 3.73 µM
  TGI DU-145: 1.93E−06 Molar
[7]
  TGI LN-caP: 6.76E−06 Molar
  GI50: 2.28 µM
  CC50: ≥ 6.76 µM
[8]
  GI50: 0.777 µM
  LC50 (concentration causing 50% net cell killing): 3.13 µM
  TGI IGROV: 1.56E−06 Molar
[9]
  GI50: 0.515 µM
  TGI IGROV-ET: 1.35E−06 Molar
  CC50: 3.16 µM
[10]
  GI50: 1.02 µM
  TGI HELA: 2.00E−06 Molar
  CC50: 3.94 µM
[11]
  GI50: 1.24 µM
  TGI HELA-APL: 2.15E−06 Molar
  CC50: 3.74 µM
[12]
  GI50: 5.85 µM
  TGI K-562: 6.76E−06 Molar
  CC50: ≥ 6.76 µM
[13]
  GI50: 2.69 µM
  TGI PANC-1: 6.76E−06 Molar
  CC50: ≥ 6.76 µM

## C/C=C1\NC(=O)[C@H](Cc2ccccc2)NC(=O)[C@@H](C(C)C)NC(=O)[C@@H]([C@@H](C)CC)NC(=O)[C@H](NC(=O)[C@H](NC(=O)[C@H](CCCN)NC(=O)[C@@H]2CCCN2C(=O)[C@H](NC(=O)[C@@H](NC(=O)[C@@H](NC(=O)[C@H](NC(=O)CC[C@@H](C)CC)C(C)C)[C@@H](C)O)C(C)C)C(C)C)[C@@H](C)CC)[C@@H](C)OC(=O)[C@H](C(C)C)NC1=O [Compound 59, [Pro^9, (4S)-MeHex^14]-KF]
[1]; A-549
  TGI A-549: 6.76E−06 Molar
  GI50: ≥ 6.76 µM
  CC50: ≥ 6.76 µM
[2]; SRB
  GI50: ≥ 6.76 µM
  TGI MEL-28: 6.76E−06 Molar
  CC50: ≥ 6.76 µM
[3]; HT-29
  TGI HT-29: 6.76E−06 Molar
  GI50: ≥ 6.76 µM
  CC50: ≥ 6.76 µM
[4]; LOVO
  GI50: 5.28 µM
  TGI LOVO: 6.76E−06 Molar
  CC50: ≥ 6.76 µM
[5]; LOVO-DOX
  GI50: ≥ 6.76 µM
  TGI LOVO-DOX: 6.76E−06 Molar
  CC50: ≥ 6.76 µM
[6]; SRB
  GI50: ≥ 6.76 µM
  LC50 (concentration causing 50% net cell kill): ≥ 6.76 µM
  TGI DU-145: 6.76E−06 Molar
[7]; SRB
  TGI LN-caP: 6.76E−06 Molar
  GI50: 4.52 µM
  CC50: ≥ 6.76 µM
[8]; SRB
  GI50: ≥ 6.76 µM
  LC50 (concentration causing 50% net cell killing): ≥ 6.76 µM
  TGI IGROV: 6.76E−06 Molar
[9]; SRB
  GI50: ≥ 6.76 µM
  TGI IGROV-ET: 6.76E−06 Molar
  CC50: ≥ 6.76 µM
[10]; HELA
  GI50: ≥ 6.76 µM
  TGI HELA: 6.76E−06 Molar
  CC50: ≥ 6.76 µM
[11]; HELA-APL
  GI50: ≥ 6.76 µM
  TGI HELA-APL: 6.76E−06 Molar
  CC50: ≥ 6.76 µM
[12]; K-562
  GI50: ≥ 6.76 µM
  TGI K-562: 6.76E−06 Molar
  CC50: ≥ 6.76 µM
[13]; PANC-1
  GI50: ≥ 6.76 µM
  TGI PANC-1: 6.76E−06 Molar
  CC50: ≥ 6.76 µM

## C/C=C1\NC(=O)[C@H](Cc2ccccc2)NC(=O)[C@@H](C(C)C)NC(=O)[C@@H]([C@@H](C)CC)NC(=O)[C@H](NC(=O)[C@H](NC(=O)[C@H](CCCN)NC(=O)[C@H]2CCCCN2C(=O)[C@H](NC(=O)[C@@H](NC(=O)[C@@H](NC(=O)[C@H](NC(=O)CC[C@@H](C)CC)C(C)C)[C@@H](C)O)C(C)C)C(C)C)[C@@H](C)CC)[C@@H](C)OC(=O)[C@H](C(C)C)NC1=O [Compound 60, [D-Pip^9, (4S)-MeHex^14]-KF]
[1]; A-549
  TGI A-549: 3.66E−06 Molar
  GI50: 1.61 µM
  CC50: 6.7 µM
[2]; SRB
  GI50: 1.66 µM
  TGI MEL-28: 3.07E−06 Molar
  CC50: 5.68 µM
[3]; HT-29
  TGI HT-29: 2.16E−06 Molar
  GI50: 1.04 µM
  CC50: 4.47 µM
[4]; LOVO
  GI50: 1.03 µM
  TGI LOVO: 2.44E−06 Molar
  CC50: 5.77 µM
[5]; LOVO-DOX
  GI50: 0.624 µM
  TGI LOVO-DOX: 1.98E−06 Molar
  CC50: 6.14 µM
[6]; SRB
  GI50: 1.64 µM
  LC50 (concentration causing 50% net cell kill): 6.16 µM
  TGI DU-145: 3.17E−06 Molar
[7]; SRB
  TGI LN-caP: 2.59E−06 Molar
  GI50: 1.23 µM
  CC50: 5.43 µM
[8]; SRB
  GI50: 1.24 µM
  LC50 (concentration causing 50% net cell killing): 6.28 µM
  TGI IGROV: 2.79E−06 Molar
[9]; SRB
  GI50: 1.21 µM
  TGI IGROV-ET: 2.68E−06 Molar
  CC50: 5.95 µM
[10]; HELA
  GI50: 3.15 µM
  TGI HELA: 6.70E−06 Molar
  CC50: 6.7 µM
[11]; HELA-APL
  GI50: 2.05 µM
  TGI HELA-APL: 4.42E−06 Molar
  CC50: 6.7 µM
[12]; K-562
  GI50: 5.3 µM
  TGI K-562: 6.70E−06 Molar
  CC50: 6.7 µM
[13]; PANC-1
  GI50: 6.7 µM
  TGI PANC-1: 6.70E−06 Molar
  CC50: 6.7 µM
